Experiments:
[1] = test system: PCP-induced hyperactivity in male Swiss mice; test: Locomotor hyperactivity induced by PCP in mice (open field); type: in vivo; conditions: 30 minute open field, mean +/- s.e.m.
Protocol: Randomized groups of 10 male Swiss mice (9 weeks old, Elevage Janvier; Le Genest-St-Isle, France) were used for each study.
Mice were group-housed and maintained in an incubator with controlled temperature (21-22° C.) and a reversed light-dark cycle (12 h/12 h) with food and water available ad libitum. All experiments were carried out in accordance with institutional guidelines.
It is well known to those skilled in the art that phencyclidine (PCP) intoxication in mice closely mimics schizophrenia and therefore is commonly used as an animal model of schizophrenia. In the following experiments, the ability of the DAO inhibitor, sodium benzoate, to reverse PCP-induced hyperactivity was monitored. PCP and the test compound, sodium benzoate, were diluted in a 0.9% sterile aqueous solution of sodium chloride (1 mg/ml). Sodium benzoate was administered by intraperitoneal injection (IP) 2 hours before administration of PCP (0.3 mg/kg by subcutaneous (SC) injection 15 minutes before start of the test). The animals were placed into an open field, which was divided into nine equal squares. A video track (Viewpoint system) was placed over a Plexiglas open field (OF; length 52 cm×52 cm; height 40 cm) and animal activity was recorded. Over a 30 minute time period, two parameters were recorded: (a) number of crossed squares and (b) total distance walked.
A global analysis of the data was performed using a one way ANOVA followed by a Dunnett's test if possible. The level of significance was set at p<0.05. Results were expressed was mean +/− standard error of the mean (s.e.m.).

Pig kidney DAAO = target: T1, Pig kidney DAAO (Sus scrofa, UniProt P00371); test: DAAO kinetics in the presence of g34872 protein (D-serine substrate); type: biochemical; conditions: 20° C.
T1 construct: The crude preparation of pig kidney DAAO was purchased from Sigma; purchased Sigma; host or cells: pig kidney tissue; purified further in house (Sephadex G-50, DEAE-Sepharose, Ultragel AcA44)
Protocol: (§1) The assay mixture was typically composed of D-serine (Aldrich) 200 mM, FAD (Sigma) at 0.1 mM, sodium phosphate buffer pH8 at 75 mM, HR-peroxidase (Sigma) 1U/ml. The mixture was air-saturated just before use. o-Dianizidine (Sigma) was added in the mixture. In the typical assay 5 μl of the enzyme (DAAO and mixes) was added to 25 μl of the assay mixture, the incubation was stopped with 50 μl of 20% H2SO4. The activity was observed as absorbance of the peroxidase-oxidized o-Dianizidine at 540 nm. The reactions containing high protein concentrations were centrifuged 15 min at 14000 rpm before absorbance measuring.
Pig kidney DAAO was mixed with g34872 in PBS and incubated 30 min at 20° C. DAAO concentration was 200 ng/μl and g34872 concentration was 2 μg/μl in the protein mixture. The control mixture (without g34872) was composed of 200 ng/μl DAAO and 2 μg/μl BSA. The enzymatic activity of DAAO was measured at 20° C. with D-serine, the substrate concentration used were from 0 to 100 mM, other corposants of the mixture and pH were standard.

hDAAO = target: T2, hDAAO (Homo sapiens, UniProt P14920); test: DAAO activity of combined yeast extracts expressing hDAAO and g34872; type: biochemical; conditions: D-serine, 37° C., FIG. 1
T2 construct: made in house; host or cells: Saccharomyces cerevisiae (YPH499 and FY1679-18B strains), pESC-Leu vector, galactose induction; crude extract
Protocol: as §1
Yeast cells were transformed with the plasmids constructed in pESC-Leu expression vector. One plasmid can express hDAAO, second one—C-terminal tagged g34872, third—is the vector without insertion (control). After the induction of the expression (2% galactose in the medium) these cells were incubated for 24 h, than the extracts were maid and combined as follow: different volumes of DAAO extract were mixed with either g34872-cHis6 or with the vector extracts. The same volumes of DAAO extracts were also mixed with BSA (external control). After 30min of the pre-incubation the combined extracts were used for DAAO activity measuring. All yeast extracts and BSA solution had the same total protein concentration. DAAO activity was determined with D-serine at 37° C.

HR-peroxidase = test: Peroxidase control assay (hydrogen peroxide substrate); type: biochemical; conditions: conditions identical to DAAO assay
Excerpt: The assay of peroxidase was done in the conditions identical to those for DAAO assay; hydrogen peroxide (Gibco) was used as a substrate, and no effect of g34872 on HRP activity was confirmed.

[2] = PCP alone 0.3 mg/kg SC 15 minutes before test
[3] = sodium benzoate 400 mg/kg IP 2 hours before PCP 0.3 mg/kg SC

T1 sequence (P00371 whole entry): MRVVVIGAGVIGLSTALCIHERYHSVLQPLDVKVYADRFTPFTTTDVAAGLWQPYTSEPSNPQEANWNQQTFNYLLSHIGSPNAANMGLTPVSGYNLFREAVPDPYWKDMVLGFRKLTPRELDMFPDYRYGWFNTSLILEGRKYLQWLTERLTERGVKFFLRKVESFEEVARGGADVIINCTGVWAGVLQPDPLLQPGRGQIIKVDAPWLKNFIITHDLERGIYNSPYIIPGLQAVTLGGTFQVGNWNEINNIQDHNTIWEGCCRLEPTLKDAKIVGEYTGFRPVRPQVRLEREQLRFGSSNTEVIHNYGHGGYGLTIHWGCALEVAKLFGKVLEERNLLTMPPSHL
T2 sequence (P14920 whole entry): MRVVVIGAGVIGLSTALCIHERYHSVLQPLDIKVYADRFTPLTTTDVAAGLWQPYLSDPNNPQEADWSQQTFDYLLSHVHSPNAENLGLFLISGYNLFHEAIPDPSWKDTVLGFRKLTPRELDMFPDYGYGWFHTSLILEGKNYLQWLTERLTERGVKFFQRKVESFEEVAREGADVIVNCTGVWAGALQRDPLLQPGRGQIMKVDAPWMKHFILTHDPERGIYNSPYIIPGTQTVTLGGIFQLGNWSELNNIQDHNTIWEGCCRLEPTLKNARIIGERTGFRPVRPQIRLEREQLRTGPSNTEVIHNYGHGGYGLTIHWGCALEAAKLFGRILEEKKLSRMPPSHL

## c1ccc(C2(N3CCCCC3)CCCCC2)cc1 [PCP, phencyclidine]
[1]; [2]
  number of crossed squares: 977.0+/−64.6
  total distance walked: 18781.8+/−1447.5

## O=C([O-])c1ccccc1.[Na+] [sodium benzoate]
[1]; sodium benzoate 125 mg/kg IP 2 hours before PCP 0.3 mg/kg SC
  total distance walked: 14807.7+/−756.8
[1]; [3]
  number of crossed squares: 740.1+/−114.1
  total distance walked: 13521.0+/−1705.6

B1: g34872: purified recombinant g34872 protein, binding partner and activator of DAO (protein)
chain: HEDGYLEMAQRHLQRSLCPWVSYLPQPYAELEEVSSHVGKVFMARNYEFLAYEASKDRRQPLERMWTCNYNQQKDQSCNHKEITSTKAE
Pig kidney DAAO; g34872&DAAO mix: DAAO 200 ng/μl, g34872 2 μg/μl, D-serine 0 to 100 mM
  Km: 4 mM
Pig kidney DAAO; pig kidney DAAO, D-serine
  effect of g34872 on DAAO (mode of action): Allosteric Activator
hDAAO
  effect on DAO activity: activates DAO
HR-peroxidase
  effect on HRP activity: no effect

Reference: patent US20030166554A1, “Treatment of CNS disorders using D-amino acid oxidase and D-aspartate oxidase antagonists” (GENSET, S.A., priority 2001, published 2003)
